Test results from PubChem BioAssay AID256 (DTP/NCI, 2004).
“And” between values parts separate entries of the source, which are not always exact repeats. Identical values can stand only once. Inconclusive results and toxic doses are left out.

Test system: CD2F1 mice, L1210 leukemia ip, survival T/C
Assay: NCI In Vivo Anticancer Drug Screen. Data for tumor model L1210 Leukemia (intraperitoneal) in CD2F1 (CDF1) mice
Conditions: higher = longer survival
How it was run: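 Compound-dosed mice with transplantable tumor versus matched vehicle controls; endpoint ratio T/C reported.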

[1] = endpoint: mean survival time, dose: 25.0 mg/kg/injection, schedule: Q01DX005 (ip), vehicle: water
[2] = endpoint: mean survival time, dose: 50.0 mg/kg/injection, schedule: Q01DX005 (ip), vehicle: water
[3] = endpoint: mean survival time, dose: 100.0 mg/kg/injection, schedule: Q01DX005 (ip), vehicle: water
[4] = endpoint: mean survival time, dose: 200.0 mg/kg/injection, schedule: Q01DX005 (ip), vehicle: water
[5] = endpoint: mean survival time, dose: 50.0 mg/kg/injection, schedule: Q01DX009 (ip), vehicle: saline
[6] = endpoint: mean survival time, dose: 100.0 mg/kg/injection, schedule: Q01DX009 (ip), vehicle: saline with Tween-80
[7] = endpoint: mean survival time, dose: 200.0 mg/kg/injection, schedule: Q01DX009 (ip), vehicle: saline with Tween-80
[8] = endpoint: mean survival time, dose: 400.0 mg/kg/injection, schedule: Q01DX009 (ip), vehicle: saline with Tween-80
[9] = endpoint: mean survival time, dose: 12.0 mg/kg/injection, schedule: Q01DX009 (ip), vehicle: saline

## CN(C)NC(=O)CC(N)C(=O)O (stereo unspecified)
endpoint: mean survival time, dose: 100.0 mg/kg/injection, schedule: Q04DX003 (ip), vehicle: saline with Tween-80
  T/C: 101 % of control
endpoint: mean survival time, dose: 200.0 mg/kg/injection, schedule: Q04DX003 (ip), vehicle: saline with Tween-80
  T/C: 101 % of control
endpoint: mean survival time, dose: 400.0 mg/kg/injection, schedule: Q04DX003 (ip), vehicle: saline with Tween-80
  T/C: 102 % of control

## Nc1nc(=O)n(C2OC(CO)C(O)C2O)c2sccc12 (stereo unspecified)
[1]
  T/C: 94 % of control
[2]
  T/C: 94 % of control
[3]
  T/C: 89 % of control
[4]
  T/C: 89 % of control

## NC(N)=Nc1nc(N)nc(N)n1
endpoint: mean survival time, dose: 3.13 mg/kg/injection, schedule: Q01DX009 (ip), vehicle: saline with Tween-80
  T/C: 104 % of control
endpoint: mean survival time, dose: 6.25 mg/kg/injection, schedule: Q01DX009 (ip), vehicle: saline with Tween-80
  T/C: 107 % of control
endpoint: mean survival time, dose: 12.5 mg/kg/injection, schedule: Q01DX009 (ip), vehicle: saline with Tween-80
  T/C: 104 % of control and 110 % of control

## CC(=O)N(c1nc(Cl)c2cc[nH]c2n1)C1OC(CO)C(O)C1O (stereo unspecified)
endpoint: mean survival time, dose: 12.5 mg/kg/injection, schedule: Q01DX005 (ip), vehicle: water
  T/C: 100 % of control
[1]
  T/C: 100 % of control
[2]
  T/C: 101 % of control
[3]
  T/C: 101 % of control
[4]
  T/C: 103 % of control

## C=C1C(=O)OC2CCCCCCC12 (stereo unspecified)
[5]
  T/C: 102 % of control
endpoint: mean survival time, dose: 100.0 mg/kg/injection, schedule: Q01DX009 (ip), vehicle: saline
  T/C: 97 % of control
endpoint: mean survival time, dose: 200.0 mg/kg/injection, schedule: Q01DX009 (ip), vehicle: saline
  T/C: 100 % of control

## Nc1ncnc2c1nc(N1CCCCC1)n2C1OC(CO)C(O)C1O (stereo unspecified)
endpoint: mean survival time, dose: 12.5 mg/kg/injection, schedule: Q01DX005 (ip), vehicle: distilled water + Tween-80
  T/C: 92 % of control and 98 % of control
endpoint: mean survival time, dose: 25.0 mg/kg/injection, schedule: Q01DX005 (ip), vehicle: distilled water + Tween-80
  T/C: 103 % of control and 97 % of control
endpoint: mean survival time, dose: 50.0 mg/kg/injection, schedule: Q01DX005 (ip), vehicle: distilled water + Tween-80
  T/C: 99 % of control and 98 % of control
endpoint: mean survival time, dose: 100.0 mg/kg/injection, schedule: Q01DX005 (ip), vehicle: distilled water + Tween-80
  T/C: 101 % of control and 100 % of control
endpoint: mean survival time, dose: 200.0 mg/kg/injection, schedule: Q01DX005 (ip), vehicle: distilled water + Tween-80
  T/C: 97 % of control and 100 % of control

## ClCCCN1CCN(CCCl)CC1
endpoint: median survival time, dose: 2.5 mg/kg/injection, schedule: Q01DX009 (ip), vehicle: saline
  T/C: 113 % of control and 115 % of control
endpoint: median survival time, dose: 10.0 mg/kg/injection, schedule: Q01DX009 (ip), vehicle: saline
  T/C: 155 % of control and 177 % of control and 209 % of control
endpoint: median survival time, dose: 20.0 mg/kg/injection, schedule: Q01DX009 (ip), vehicle: saline
  T/C: 109 % of control
endpoint: median survival time, dose: 40.0 mg/kg/injection, schedule: Q01DX009 (ip), vehicle: saline
  T/C: 88 % of control and 90 % of control

## C=C(C)c1ccc(C)c(C)c1
[6]
  T/C: 93 % of control
[7]
  T/C: 98 % of control
[8]
  T/C: 114 % of control

## NC(=S)N/N=C/c1c(O)ccc2ccccc12
endpoint: mean survival time, dose: 12.5 mg/kg/injection, schedule: Q04DX003 (ip), vehicle: saline with Tween-80
  T/C: 98 % of control
endpoint: mean survival time, dose: 25.0 mg/kg/injection, schedule: Q04DX003 (ip), vehicle: saline with Tween-80
  T/C: 95 % of control
endpoint: mean survival time, dose: 50.0 mg/kg/injection, schedule: Q04DX003 (ip), vehicle: saline with Tween-80
  T/C: 95 % of control

## C[N+]12CC3C(O)CC1CCC32 (stereo unspecified)
endpoint: mean survival time, dose: 12.0 mg/kg/injection, schedule: Q01DX001 (ip), vehicle: saline
  T/C: 97 % of control
[9]
  T/C: 96 % of control
endpoint: mean survival time, dose: 25.0 mg/kg/injection, schedule: Q01DX001 (ip), vehicle: saline
  T/C: 96 % of control
endpoint: mean survival time, dose: 25.0 mg/kg/injection, schedule: Q01DX009 (ip), vehicle: saline
  T/C: 98 % of control
endpoint: mean survival time, dose: 50.0 mg/kg/injection, schedule: Q01DX001 (ip), vehicle: saline
  T/C: 97 % of control
[5]
  T/C: 93 % of control

## Cc1ccc(NC(=O)/C=C/C(=O)O)cc1
[6]
  T/C: 105 % of control
[7]
  T/C: 107 % of control
[8]
  T/C: 103 % of control

## N=C(N)c1ccc(Nc2ccc(C(=N)N)cc2)cc1
endpoint: mean survival time, dose: 3.0 mg/kg/injection, schedule: Q01DX009 (ip), vehicle: saline
  T/C: 96 % of control and 100 % of control
endpoint: mean survival time, dose: 6.0 mg/kg/injection, schedule: Q01DX009 (ip), vehicle: saline
  T/C: 100 % of control and 101 % of control
[9]
  T/C: 93 % of control and 95 % of control
endpoint: mean survival time, dose: 24.0 mg/kg/injection, schedule: Q01DX009 (ip), vehicle: saline
  T/C: 98 % of control
